According to patent US6579881B2 (Eisai Co., Ltd., priority 1997, dated 2003):

How the values were obtained:
serotonin 2 receptor = serotonin 2 receptor (Rattus norvegicus, UniProt P14842); test: Binding test on [3H] ketanserin (serotonin 2 receptor); conditions: [3H] ketanserin 0.3 nM, receptor fraction of rat cerebral cortex; read-out: 5HT2
serotonin 1A receptor = biological target: T1, serotonin 1A receptor (Rattus norvegicus, UniProt P19327); test: Binding test on [3H] 8-hydroxy-dipropylaminotetralin (serotonin 1A receptor); conditions: [3H] 8-OH-DPAT 0.5 nM, receptor fraction of rat hippocampus; read-out: 5HT1a
T1 construct: To the receptor fraction of the hippocampus were added a test compound and 0.5 nM of [^3H]; 8-hydroxy-dipropylaminotetralin; from tissue; host or cells: SD rat hippocampus, membrane (receptor) fraction
T1 sequence (P19327 1-422): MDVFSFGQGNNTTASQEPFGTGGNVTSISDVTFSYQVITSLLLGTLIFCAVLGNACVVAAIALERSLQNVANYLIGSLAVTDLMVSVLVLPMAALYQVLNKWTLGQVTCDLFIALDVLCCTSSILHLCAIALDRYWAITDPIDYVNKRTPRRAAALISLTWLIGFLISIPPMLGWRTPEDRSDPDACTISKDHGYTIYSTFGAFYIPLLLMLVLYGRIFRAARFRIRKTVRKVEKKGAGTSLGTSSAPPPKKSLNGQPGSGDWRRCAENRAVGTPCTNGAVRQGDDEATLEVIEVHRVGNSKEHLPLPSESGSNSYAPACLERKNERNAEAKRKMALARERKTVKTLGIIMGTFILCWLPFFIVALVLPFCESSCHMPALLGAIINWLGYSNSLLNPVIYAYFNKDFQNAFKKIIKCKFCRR

Chain of serotonin 2 receptor (P14842 whole entry): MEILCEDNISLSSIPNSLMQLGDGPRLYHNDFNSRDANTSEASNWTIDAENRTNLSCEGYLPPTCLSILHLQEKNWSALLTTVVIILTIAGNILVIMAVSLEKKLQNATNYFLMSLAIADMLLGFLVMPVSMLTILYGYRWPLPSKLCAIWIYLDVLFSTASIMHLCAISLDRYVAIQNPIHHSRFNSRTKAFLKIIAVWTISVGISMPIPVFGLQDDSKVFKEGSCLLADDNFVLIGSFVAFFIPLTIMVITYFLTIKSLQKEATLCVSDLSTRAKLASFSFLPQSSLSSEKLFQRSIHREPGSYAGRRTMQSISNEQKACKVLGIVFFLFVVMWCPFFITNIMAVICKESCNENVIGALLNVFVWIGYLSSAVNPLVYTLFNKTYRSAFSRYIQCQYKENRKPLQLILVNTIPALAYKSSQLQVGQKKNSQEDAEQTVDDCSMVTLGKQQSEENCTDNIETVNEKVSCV

| SMILES | Ki (serotonin 2 receptor) [nM] | Ki (serotonin 1A receptor) [nM] |
| --- | --- | --- |
| Clc1cccc(CCN2CCC(N3CCc4ccccc43)CC2)c1 [Example 5, 1-[1-(3-chlorophenethyl)piperidin-4-yl]indoline] | 8.1 | 10.1 |
| COc1ccc2c(c1)N(C1CCN(CCc3ccc(S(N)(=O)=O)cc3)CC1)CC2 [Example 230, 1-[1-(4-sulfamoylphenethyl)piperidin-4-yl]-6-methoxyindoline] | > 200 | 13.3 |
| O=C(c1ccc2c(c1)N(C1CCN(CCc3ccc(F)cc3)CC1)CC2)n1cccc1 [Example 126, 1-[1-(4-fluorophenethyl)piperidin-4-yl]-6-(1-pyrrolylcarbonyl)indoline] | 129 | 1.23 |
| COc1ccc2c(c1OC)N(C1CCN(CCc3ccc(F)cc3)CC1)CC2 [Example 108, 1-[1-(4-fluorophenethyl)piperidin-4-yl]-6,7-dimethoxyindoline] | 2.2 | 172 |
| c1ccc(CCN2CCC(N3CCc4ccccc43)CC2)cc1 [Example 3, 1-(1-phenethylpiperidin-4-yl)indoline] | 17.4 | 28.7 |
| CCNc1ccc2c(c1)N(C1CCN(CCc3ccc(F)cc3)CC1)CC2 [Example 112, 1-[1-(4-fluorophenethyl)piperidin-4-yl]-6-ethylaminoindoline] | 165 | 3.2 |
| CS(=O)(=O)NCc1ccc2c(c1)N(C1CCN(CCc3ccc(F)cc3)CC1)CC2 [Example 160, 1-[1-(4-fluorophenethyl)piperidin-4-yl]-6-methylsulfonylaminomethylindoline] | 8 | 3.86 |
| Fc1ccc(CCN2CCC(N3CCc4cc5c(cc43)OCO5)CC2)cc1 [Example 284, 1-[1-(4-fluorophenethyl)piperidin-4-yl]-5,6-methylenedioxyindoline] | 4.7 | 4.5 |
| O=C(CCCN1CCC(N2CCc3ccccc32)CC1)c1ccc(F)cc1 [Example 72, 1-{1-[4-(4-fluorophenyl)-4-oxobutyl]piperidin-4-yl}indoline] | 21.1 | 25.9 |
| CC(C)Nc1ccc2c(c1)N(C1CCN(CCc3ccc(F)cc3)CC1)CC2 [Example 113, 1-[1-(4-fluorophenethyl)piperidin-4-yl]-6-isopropylaminoindoline] | > 200 | 13.7 |
| COc1ccc(S(=O)(=O)NCCN2CCC(N3CCc4ccccc43)CC2)cc1 [Example 48, 1-{1-[2-(4-methoxyphenylsulfonylamino)ethyl]piperidin-4-yl}indoline] | 35 | 15.3 |
| Fc1ccc(CCN2CCC(N3CCc4ccncc43)CC2)cc1 [Example 264, 1-[1-(4-fluorophenethyl)piperidin-4-yl]-6-azaindoline] | 139 | 11.3 |
| COc1ccc(CC(C)N2CCC(N3CCc4ccccc43)CC2)cc1OC (centres unmarked) [Example 76, 1-{1-[1-(3,4-dimethoxyphenyl)propan-2-yl]piperidin-4-yl}indoline] | > 200 | 43.2 |
| O=S(=O)(NCCN1CCC(N2CCc3ccccc32)CC1)c1ccc(Cl)cc1 [Example 47, 1-{1-[2-(4-chlorophenylsulfonylamino)ethyl]piperidin-4-yl}indoline] | 92.3 | 206 |
| CCN1CCN([C@@H]2c3ccccc3CC2N(C)Cc2ccc(F)cc2)CC1 (some centres unmarked) [Example 254] | 177 | > 200 |
| CS(=O)(=O)Nc1ccc2c(c1)N(C1CCN(CCc3ccc(F)cc3F)CC1)CC2 [Example 221, 1-[1-(2,4-difluorophenethyl)piperidin-4-yl]-6-methanesulfonylaminoindoline] | 2.4 | 1.9 |
| COc1ccc(CCN2CCC(N3CCc4ccccc43)CC2)s1 [Example 64] | 14.2 | 14.8 |
| COc1ccc(CCN2CCC(C3CCc4ccccc43)CC2)cc1 (centres unmarked) [Example 249, 1-[1-(4-methoxyphenethyl)piperidin-4-yl]indan] | 20.2 | 2.1 |
| O=S(=O)(Nc1ccc2c(c1)N(C1CCN(CCc3ccc(F)cc3)CC1)CC2)c1ccc(F)cc1 [Example 119, 1-[1-(4-fluorophenethyl)piperidin-4-yl]-6-(4-fluorobenzenesulfonylamino)indoline] | 45.5 | 0.2 |
| CN(C)c1ccc(C(O)c2ccc3c(c2)N(C2CCN(CCc4ccc(F)cc4)CC2)CC3)cn1 (centres unmarked) [Example 191, 1-[1-(4-fluorophenethyl)piperidin-4-yl]-6-[1-hydroxy-1-(2-dimethylaminopyridin-5-yl)methyl]indoline] | 0.32 | 29.1 |
| Fc1ccc(CCN2CCC(N3CCc4ccccc43)CC2)c(F)n1 [Example 57, 1-[1-(2,6-difluoro-3-pyridylethyl)piperidin-4-yl]indoline] | 1.1 | 14.6 |
| COc1ccc2c(c1)C(N1CCN(CCc3ccc(F)cc3)CC1)CCCC2 (centres unmarked) [Example 282, 1-(4-fluorophenethyl)-4-(2-methoxybenzocycloheptan-9-yl)piperazine] | 150 | 58.7 |
| NCc1ccc(CCN2CCC(N3CCc4ccccc43)CC2)cc1 [Example 35, 1-[1-(4-aminomethylphenethyl)piperidin-4-yl]indoline] | 37.6 | 16.6 |
| CCN1CCC(N2CC(CCc3cccc(F)c3)c3ccccc32)CC1 (centres unmarked) [Example 247, 1-(1-ethylpiperidin-4-yl)-3-(3-fluorophenethyl)indoline] | 52.9 | > 200 |

The remaining lines, values ahead:

| Ki (serotonin 2 receptor) [nM] | Ki (serotonin 1A receptor) [nM] | SMILES |
| --- | --- | --- |
| 6.2 | 3.4 | OCc1ccc2c(c1)N(C1CCN(CCc3ccc(F)cc3)CC1)CC2 [Example 136, 1-[1-(4-fluorophenethyl)piperidin-4-yl]-6-hydroxymethylindoline] |
| 8.8 | 2.31 | CC(C)(O)c1ccc2c(c1)N(C1CCN(CCc3ccc(F)cc3)CC1)CC2 [Example 139, 1-[1-(4-fluorophenethyl)piperidin-4-yl]-6-(1-hydroxy-1-methylethyl)indoline] |
| 18.1 | 0.04 | CC(=O)Nc1ccc2c(c1)N(C1CCN(CCc3ccc(F)cc3F)CC1)CC2 [Example 222, 1-[1-(2,4-difluorophenethyl)piperidin-4-yl]-6-acetamidoindoline] |
| 3.38 | 1.49 | CC(F)c1ccc2c(c1)N(C1CCN(CCc3ccc(F)cc3)CC1)CC2 (centres unmarked) [Example 144, 1-[1-(4-fluorophenethyl)piperidin-4-yl]-6-(1-fluoroethyl)indoline] |
| 1.05 | 2.33 | O=C1OCCN1Cc1ccc2c(c1)N(C1CCN(CCc3ccc(F)cc3)CC1)CC2 [Example 208, 1-[1-(4-fluorophenethyl)piperidin-4-yl]-6-(2-oxazolidon-3-yl)methylindoline] |
| 5.08 | 0.21 | CC(=O)c1ccc2c(c1)N(C1CCN(CCc3ccc(F)cc3)CC1)CC2 [Example 127, 1-[1-(4-fluorophenethyl)piperidin-4-yl]-6-acetylindoline] |
| 11.7 | 4.5 | CS(=O)(=O)Nc1cc2c(cc1Cl)CCN2C1CCN(CCc2ccc(F)cc2)CC1 [Example 218, 1-[1-(4-fluorophenethyl)piperidin-4-yl]-5-chloro-6-methanesulfonylaminoindoline] |
| 2.88 | 6.92 | OC(c1ccc2c(c1)N(C1CCN(CCc3ccc(F)cc3)CC1)CC2)c1nccs1 (centres unmarked) [Example 193, 1-[1-(4-fluorophenethyl)piperidin-4-yl]-6-[1-(2-thiazolyl)-1-hydroxymethyl]indoline] |
| 12.9 | 1.3 | Fc1ccc(CCN2CCC(N3CCc4cccnc43)CC2)cc1 [Example 260, 1-[1-(4-fluorophenethyl)piperidin-4-yl]-7-azaindoline] |
| 17.4 | > 200 | COc1cccc2c1CCN2C1CCN(CCc2ccc(F)cc2)CC1 [Example 105, 1-[1-(4-fluorophenethyl)piperidin-4-yl]-4-methoxyindoline] |
| 4.7 | 0.34 | CS(=O)(=O)c1ccc2c(c1)N(C1CCN(CCc3ccc(F)cc3)CC1)CC2 [Example 128, 1-[1-(4-fluorophenethyl)piperidin-4-yl]-6-methanesulfonylindoline] |
| 48.8 | 8.07 | N#CCc1ccc2c(c1)N(C1CCN(CCc3ccc(F)cc3)CC1)CC2 [Example 145, 1-[1-(4-fluorophenethyl)piperidin-4-yl]-6-cyanomethylindoline] |
| 14.3 | 2.08 | NCc1ccc2c(c1)N(C1CCN(CCc3ccc(F)cc3)CC1)CC2 [Example 132, 1-[1-(4-fluorophenethyl)piperidin-4-yl]-6-aminomethylindoline] |
| 45.8 | 1.1 | N#Cc1ccc2c(c1)N(C1CCN(CCc3ccc(F)cc3)CC1)CC2 [Example 124, 1-[1-(4-fluorophenethyl)piperidin-4-yl]-6-cyanoindoline] |
| 35.1 | 6.23 | OC1(c2ccc3c(c2)N(C2CCN(CCc4ccc(F)cc4)CC2)CC3)CCC1 [Example 140, 1-[1-(4-fluorophenethyl)piperidin-4-yl]-6-(1-hydroxycyclobutyl)indoline] |
| 74.2 | 5.5 | CNc1ccc2c(c1)N(C1CCN(CCc3ccc(F)cc3)CC1)CC2 [Example 111, 1-[1-(4-fluorophenethyl)piperidin-4-yl]-6-methylaminoindoline] |
